{"source": "patent US20200016200A1", "about": "“MODULATING CYTOTOXIC CELL LYTIC GRANULE POSITIONING TO PROMOTE DIFFUSE KILLING IN CELLULAR THERAPIES” (Baylor College of Medicine, priority 2016, published 2020)", "test_system": "eNK cells", "assay": "Live cell confocal microscopy (UGATm) of antibody-dependent cellular cytotoxicity", "assay_type": "cell-based, human", "details": "eNK aggregated with uncoated and RTX-coated Raji cells, no LFA-1 blockade", "procedure": "FIGS. 9A-9D. LFA-1 blockade increases bystander killing. Live cell confocal microscopy of antibody-dependent cellular cytotoxicity by eNK cells pre-treated with murine IgG1 mAb control (9A) or LFA-1 blocking mAb (clone TS1/22, 9B). Green, RTX-coated Raji cells (NK-inciting targets); yellow, uncoated Raji cells (bystanders); red, LysoTracker Red (lytic granules); blue, SYTOX Blue viability dye. NK cells were mixed with the target cells immediately before the imaging process and imaged every 4 min for 4 hours. […] Data represent combined results from three healthy donors. Standard 4-hour 51Cr cytotoxicity assay of NK cells treated with LFA-1-blocking mAb or murine IgG control (9D). Each dot represents an individual healthy donor.\nTo apply this concept in the context of physiologic antibody-dependent cell mediated cytotoxicity (ADCC) a human therapeutic monoclonal antibody, Rituximab (RTX) was used along with NK cell resistant Raji cells that naturally express the antigen recognized by RTX. […]\nYTS-CD16 and eNK cells were incubated with 5 μM LysoTracker Red DND-99 (Thermo Fisher) for 30 min at 37° C. and washed. […] Emission was detected with HyD detectors, and images were collected in a single z-plane at one frame every 4 or 30 min for 120 min. […]"}
{"substance": "Rituximab: human therapeutic monoclonal antibody against CD20, used to coat Raji cells for ADCC", "values": [{"measurement": "killing of RTX-coated versus uncoated Raji cells", "result": "preferential killing of the RTX-coated Raji cells"}]}
